Assay [1] relates to tumor-infiltrating T cells and MDSC in 4T1 tumor microenvironment. In words: Flow cytometry of immune cells in 4T1 tumors. Type of assay: in vivo, Balb/C mice. As to conditions: immune competent mice. The procedure: The composition of immune cells was analyzed with multi-color flow cytometry (FACS) at days when tumor reaches 800-1000 mm^3. Tumors were treated with dissociation media (Miltenyi, CAT #130-096-730) and resuspend in FACS buffer. T cell infiltration was measured by the investigating the number of T cells in the tumor samples. CD4 T, CD8 T, activated CD4 T, and activated CD8 T cells were identified by cell surface marker as CD45^+CD3^+CD4^+, CD45^+CD3^+CD8^+, CD45^+CD3^+CD4^+CD69^+, and CD45^+CD3^+CD8^+CD69^+, respectively. The absolute count of cells was measured by normalized number of cells with counting beads (eBiosciences CAT #01-1234-42) and the weight of each tumor sample. Absolute count of tumor-infiltrating T cells was calculated by the formula as Absolute count (cells/mg)=[(cell count×eBead Volume)/(eBead count×tumor weight)]×eBead concentration.
(In general: A flow cytometer gives signals particle by particle.)

The next assay relates to 4T1 breast cancer cells. In words: Tumor growth inhibition in immune-competent syngeneic mouse model 4T1. Type of assay: in vivo, Balb/C mice. As to conditions: 14 day; CX-4945 75 mg/kg oral BID Day 0-13; cisplatin 6 mg/kg i.p. QW Day 0 and 7. The procedure:
Efficacy studies of tumor growth inhibition and T cells activities was conducted in an immune-competent syngeneic mouse models, 4T1, that is known to be resistant to the treatment of immune checkpoint inhibitors such as anti-PD1, anti-PD-L1, and anti-CTLA4. The resistance to these antagonists that modulates T cell […] signaling indicate a high immune suppressive tumor microenvironment.
This series of studies were conducted in Balb/C mice that are six to eight weeks old. Breast cancer cells, 4T1, were injected subcutaneously with 3×10^5 cells in 0.1 ml PBS to the right flank of the mice. Mice were randomized for treatment when the mean tumor size reached approximately 80-120 mm^3. Treatment were administered with CX-4945 and/or cisplatin at the doses and schedules described in Table 1. […] Tumors were measured two dimensionally (width×length) with an electronic caliper and tumor volume was calculated with the formula V=(L×W×W)/2, where V is tumor volume, L is tumor length (the longest tumor dimension) and W is tumor width (the longest tumor dimension perpendicular to L). The mice were monitored twice weekly and euthanized when tumor sizes reached approximately 800-1000 mm^3 for flow cytometry analysis.
Anti-tumor activities were measured as % Tumor Growth Inhibition (% TGI) at the time of euthanized. TGI was calculated as % TGI=100×(1−T/C). […]

In assay [2] the test system is A2780 ovarian cancer xenografts. In words: A2780 ovarian tumor xenograft model, gemcitabine and CX-4945. As to conditions: gemcitabine 60 mg/kg i.v., CX-4945 100 mg/kg oral. It is filed as in vivo.
In assay [3] the test system is Colo-205 colorectal cancer model. Briefly: Colo-205 colorectal cancer model, gemcitabine and CX-4945. Type of assay: in vivo. As to conditions: Colo-205 model (FIG. 2). The text has this: The Colo-205 colorectal cancer model is resistant to each individual agent alone (FIG. 2).

Three compounds from US12116363B2, “Combinations for immune-modulation in cancer treatment” (SENHWA BIOSCIENCES, INC., priority 2018, dated 2024) can be followed below.

In the case of `O=C(O)c1ccc2c(c1)nc(Nc1cccc(Cl)c1)c1ccncc12` [CX-4945, silmitasertib], in assay [1], the “number of MDSC systemically or locally in the tumor microenvironment” value is reported as “does not decrease”. In addition, the “% TGI” value in the assay on 4T1 breast cancer cells was determined as 18%. In assay [2], the “% TGI” value stood at 20%, the “Median TTE days” value is reported as 18 days and the “delay in time to endpoint (TTE analysis)” value is reported as “significant delay in time to endpoint”. Also, in assay [3], the tumor growth entry is on record as “resistant”.
As for `N.N.[Cl][Pt][Cl]` [Cisplatin, cisplatin, reference compound], the “% TGI” value in the assay on 4T1 breast cancer cells is on record as 45%.
As for `Nc1ccn([C@@H]2O[C@H](CO)[C@@H](O)C2(F)F)c(=O)n1` [Gemcitabine, gemcitabine, reference compound], in assay [2], the “% TGI” value is reported as 68%, the “Median TTE days” value was found to be 28 days and the “delay in time to endpoint (TTE analysis)” value is “significant delay in time to endpoint”. In assay [3], the tumor growth entry was “resistant”.
